From US6737383B1, “Herbicidal oxadiazolidines” (priority 1999, dated 2004) come the findings set out here.

For one test, the system named is giant foxtail. Description: Test B pre/postemergence giant foxtail. The format is in vivo, Setaria faberii. In a few lines: (§1)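 Response is a visual 0-to-10 score relative to untreated plants, where 0 means no effect and 10 means complete control, taken twelve to sixteen days after application. Treatments went onto soil at planting and onto foliage of 1- to 4-leaf plants, using a surfactant-containing non-phytotoxic solvent.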

The next test deals with pigweed. Description: Test B pre/postemergence pigweed. The test is classed as in vivo, Amaranthus retroflexus. In a few lines: as §1
Another test concerns morningglory. The test can be described thus: Test B pre/postemergence morningglory. The test is classed as in vivo, Ipomoea hederacea. A digest of the protocol:
as §1

Setting [1] is: Postemergence, Rate 62 g/ha, scale of 0 to 10, 0 is no effect, 10 is complete control.
The mark [2] stands for this setting: Postemergence, Rate 125 g/ha, scale 0 to 10, 0 is no effect, 10 is complete control.
[3] abbreviates: Postemergence, Rate 500 g/ha, scale 0 to 10, 0 is no effect, 10 is complete control.
[4] abbreviates: Preemergence, Rate 62 g/ha, scale of 0 to 10 where 0 is no effect and 10 is complete control.
[5] abbreviates: Preemergence, Rate 125 g/ha, scale 0 to 10, 0 is no effect, 10 is complete control.
Where [6] appears, read: Preemergence, Rate 500 g/ha, scale of 0 to 10 where 0 is no effect and 10 is complete control.
[7] abbreviates: Rate 250 g/ha, Postemergence, scale of 0 to 10 where 0 is no effect and 10 is complete control.
The mark [8] stands for this setting: Postemergence, Rate 62 g/ha, scale 0 to 10, 0 is no effect, 10 is complete control.
Where [9] appears, read: Postemergence, Rate 250 g/ha, scale 0 to 10, 0 no effect, 10 complete control.
The mark [10] stands for this setting: Preemergence, Rate 62 g/ha, scale 0 to 10, 0 is no effect, 10 is complete control.
Where [11] appears, read: Preemergence, Rate 125 g/ha, scale 0 to 10 (0 no effect, 10 complete control).
The mark [12] stands for this setting: Preemergence, Rate 250 g/ha, scale of 0 to 10 where 0 is no effect and 10 is complete control.
[13] abbreviates: Preemergence, Rate 500 g/ha, scale 0 (no effect) to 10 (complete control).
Setting [14] is: Rate 125 g/ha, Postemergence, scale 0 to 10, 0 no effect, 10 complete control.
Where [15] appears, read: Rate 500 g/ha, Postemergence, 0 to 10 scale (0 no effect, 10 complete control).
Where [16] appears, read: Postemergence, Rate 125 g/ha, scale of 0 to 10 where 0 is no effect and 10 is complete control.
Setting [17] is: Preemergence, Rate 62 g/ha, scale 0 to 10 (0 no effect, 10 complete control).
The mark [18] stands for this setting: Rate 500 g/ha, Postemergence, scale 0 to 10, 0 no effect, 10 complete control.
The mark [19] stands for this setting: Postemergence, Rate 250 g/ha, scale of 0 to 10, 0 is no effect, 10 is complete control.
The mark [20] stands for this setting: Preemergence, Rate 125 g/ha, scale of 0 to 10 where 0 is no effect and 10 is complete control.
Setting [21] is: Preemergence, Rate 250 g/ha, scale 0 to 10 (0 no effect, 10 complete control).
Where [22] appears, read: Rate 500 g/ha, Postemergence, scale 0 to 10, 0 is no effect, 10 is complete control.

In the case of `CC(C)N(C(=O)n1oc(=O)n(CCC2OCCO2)c1=O)c1ccc(Cl)cc1` [Compound 531], the “Giant foxtail plant response rating” value in the test on giant foxtail (setting [1]) is on record as 0; in the test on giant foxtail (setting [2]), 8; with giant foxtail (setting [5]), 10; in the test with giant foxtail (setting [6]) it was 10. Further, the “Plant response rating, Giant foxtail” value in the test on giant foxtail (setting [3]), in the test on giant foxtail (setting [4]) and with giant foxtail (setting [7]) was 9 each time. Moreover, in the test on giant foxtail (Preemergence, Rate 250 g/ha), the “Giant foxtail plant response rating (0 to 10 scale)” value is 10. Further, the “Redroot pigweed plant response rating” value in the test on pigweed (setting [1]), in the test on pigweed (setting [2]) and in the test on pigweed (setting [5]) was 0 throughout. Also, the “Plant response rating, Redroot pigweed” value in the test on pigweed (setting [3]), in the test with pigweed (setting [4]) and in the test on pigweed (setting [7]) was 0 each time. The “Redroot pigweed plant response rating (0 to 10 scale)” value in the test on pigweed (Preemergence, Rate 250 g/ha) was determined as 0. The “Morningglory plant response rating” value turned out to be 2 with morningglory (setting [1]), 4 in the test on morningglory (setting [2]), 0 with morningglory (setting [5]) and 0 with morningglory (setting [6]). In addition, the figures for the “Plant response rating, Morningglory” value in the test on morningglory (setting [4]) and in the test on morningglory (setting [7]) were 0 and 4, respectively. In the test on morningglory (Preemergence, Rate 250 g/ha), the “Morningglory plant response rating (0 to 10 scale)” value is recorded as 0.

`CCc1ccccc1-n1c(=O)on(C(=O)N(c2ccc(F)cc2F)C(C)C)c1=O` [Compound 45]: the “Giant foxtail plant response rating” value with giant foxtail (setting [8]) was determined as 0; in the test on giant foxtail (setting [9]) it was 9; with giant foxtail (setting [13]), 10; with giant foxtail (setting [14]) it was 0; in the test on giant foxtail (setting [15]) it was 9. Moreover, the figures for the “Plant response rating, Giant foxtail” value in the test with giant foxtail (setting [10]), in the test with giant foxtail (setting [11]) and with giant foxtail (setting [12]) were 7, 10 and 10, respectively. In addition, the “Redroot pigweed plant response rating” value in the test on pigweed (setting [8]) is listed as 0; in the test with pigweed (setting [9]) it was 0; with pigweed (setting [13]) it was 8; in the test on pigweed (setting [14]), 0; in the test with pigweed (setting [15]), 0. In addition, the “Plant response rating, Redroot pigweed” value amounted to 0 with pigweed (setting [10]), 0 in the test with pigweed (setting [11]) and 8 in the test on pigweed (setting [12]). For the same compound, the “Morningglory plant response rating” value with morningglory (setting [8]) is on record as 0; in the test on morningglory (setting [9]), 0; with morningglory (setting [13]) it was 0; in the test with morningglory (setting [14]), 0; with morningglory (setting [15]), 3. In addition, the “Plant response rating, Morningglory” value in the test with morningglory (setting [10]), in the test on morningglory (setting [11]) and in the test on morningglory (setting [12]) was 0 throughout.

Consider `CCN(CC)C(=O)n1oc(=O)n(-c2cccc3c2CCCC3)c1=O` [Compound 89], for which the “Giant foxtail plant response rating” value is 0 in the test on giant foxtail (setting [8]); 0 in the test with giant foxtail (setting [16]); 0 in the test on giant foxtail (setting [9]); 0 with giant foxtail (setting [17]); 2 in the test with giant foxtail (setting [13]); 2 with giant foxtail (setting [18]). The “Plant response rating, Giant foxtail” value with giant foxtail (setting [11]) and with giant foxtail (setting [12]) was 0 throughout. Further, the “Redroot pigweed plant response rating” value in the test with pigweed (setting [8]) was determined as 0; in the test with pigweed (setting [16]) it was 0; in the test with pigweed (setting [17]), 0; in the test with pigweed (setting [13]), 0; in the test with pigweed (setting [18]), 5. The “Plant response rating, Redroot pigweed” value in the test on pigweed (setting [11]) turned out to be 0; in the test on pigweed (setting [12]), 0; in the test with pigweed (Rate 250 g/ha, Postemergence, scale 0 to 10, 0 is no effect, 10 is complete control) it was 0. Moreover, the “Morningglory plant response rating” value in the test with morningglory (setting [8]) is reported as 0; with morningglory (setting [16]), 0; with morningglory (setting [9]), 0; in the test on morningglory (setting [17]), 0; in the test on morningglory (setting [13]) it was 0; in the test with morningglory (setting [18]), 2. The “Plant response rating, Morningglory” value in the test on morningglory (setting [11]) and in the test on morningglory (setting [12]) was 0 throughout.

Take `Cc1ccccc1-n1c(=O)on(C(=O)N(c2ccc(C#N)cc2)C(C)C)c1=O` [Compound 51]: the “Giant foxtail plant response rating” value worked out at 0 in the test with giant foxtail (setting [8]); 0 in the test on giant foxtail (setting [9]); 8 in the test on giant foxtail (setting [13]); 0 in the test with giant foxtail (setting [14]); 3 with giant foxtail (setting [18]). The “Plant response rating, Giant foxtail” value stood at 0 in the test with giant foxtail (setting [10]), 2 in the test with giant foxtail (setting [11]) and 4 in the test on giant foxtail (setting [12]). Besides, the “Redroot pigweed plant response rating” value in the test on pigweed (setting [8]), with pigweed (setting [9]), in the test on pigweed (setting [13]), with pigweed (setting [14]) and in the test with pigweed (setting [18]) was 0 each time. The “Plant response rating, Redroot pigweed” value in the test with pigweed (setting [10]), with pigweed (setting [11]) and with pigweed (setting [12]) was 0 throughout. Further, the “Morningglory plant response rating” value with morningglory (setting [8]) is recorded as 0; in the test with morningglory (setting [9]), 0; with morningglory (setting [13]), 0; with morningglory (setting [14]), 0; in the test on morningglory (setting [18]), 1. The “Plant response rating, Morningglory” value with morningglory (setting [10]), in the test on morningglory (setting [11]) and with morningglory (setting [12]) was 0 throughout.

With `CC(C)N(C(=O)n1oc(=O)n(CCC(=O)N(C)C)c1=O)c1ccccc1` [Compound 671], the “Plant response rating, Giant foxtail” value in the test on giant foxtail (setting [8]) came to 5; in the test with giant foxtail (setting [20]), 9; with giant foxtail (setting [21]), 10; in the test with giant foxtail (setting [6]) it was 10. Moreover, the “Giant foxtail plant response rating” value was 5 in the test with giant foxtail (setting [16]), 9 in the test with giant foxtail (setting [19]), 8 in the test with giant foxtail (setting [4]) and 9 with giant foxtail (setting [22]). Further, the “Plant response rating, Redroot pigweed” value is reported as 0 with pigweed (setting [8]), 2 in the test on pigweed (setting [20]), 10 with pigweed (setting [21]) and 10 with pigweed (setting [6]). The entries for the “Redroot pigweed plant response rating” value in the test on pigweed (setting [16]), in the test on pigweed (setting [4]) and in the test with pigweed (setting [22]) were 1, 0 and 5, respectively. Further, the “Plant response rating, Morningglory” value stood at 1 with morningglory (setting [8]), 2 with morningglory (setting [20]), 5 with morningglory (setting [21]) and 8 in the test with morningglory (setting [6]). In addition, the “Morningglory plant response rating” value in the test with morningglory (setting [16]) was found to be 1; in the test on morningglory (setting [19]), 1; in the test on morningglory (setting [4]) it was 0; with morningglory (setting [22]) it was 6.
